Literature values, collected in patent US20090163599A1, “Mif adsorbant” (priority 2004, published 2009).

Molecular target: T1, dopachrome tautomerase activity of MIF (Homo sapiens, UniProt P14174)
T1 sequence (P14174 2-115 limits assumed): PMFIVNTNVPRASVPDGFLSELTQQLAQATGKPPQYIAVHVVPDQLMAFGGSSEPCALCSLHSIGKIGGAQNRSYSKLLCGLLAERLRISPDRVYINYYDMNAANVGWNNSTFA
Conditions: known from Swope et al, J Biol Chem 273: 14877-14884, 1998

Structure (SMILES)	inhibiting effect on the dopachrome tautomerase activity of MIF
CCCCCCSC[C@H](NC(=O)CC[C@H](N)C(=O)O)C(=O)NCC(=O)O [S-hexylglutathione]	strong inhibiting effect
CCCCCCS [hexane thiol]	strong inhibiting effect
